Test results: patent publication US9216999B2, “Substituted pyrrolo[2,3-h][1,6]naphthyridines and compositions thereof as JAK inhibitors” (priority 2011, dated 2015)
Like-named read-outs stand apart in the source and are kept apart here.

Legend:
Assay type in all cases: biochemical
JAK1 = JAK1 (Homo sapiens (Human), UniProt P23458); assay: Enzyme assay (Assay Example^a 1), JAK1; conditions: ATP 100 μM
JAK2 = JAK2 (Homo sapiens (Human), UniProt O60674); assay: Enzyme assay (Assay Example^a 1), JAK2
JAK3 = JAK3 (Homo sapiens (Human), UniProt P52333); assay: Enzyme assay (Assay Example^a 1), JAK3
Chain of JAK3 (P52333 whole entry): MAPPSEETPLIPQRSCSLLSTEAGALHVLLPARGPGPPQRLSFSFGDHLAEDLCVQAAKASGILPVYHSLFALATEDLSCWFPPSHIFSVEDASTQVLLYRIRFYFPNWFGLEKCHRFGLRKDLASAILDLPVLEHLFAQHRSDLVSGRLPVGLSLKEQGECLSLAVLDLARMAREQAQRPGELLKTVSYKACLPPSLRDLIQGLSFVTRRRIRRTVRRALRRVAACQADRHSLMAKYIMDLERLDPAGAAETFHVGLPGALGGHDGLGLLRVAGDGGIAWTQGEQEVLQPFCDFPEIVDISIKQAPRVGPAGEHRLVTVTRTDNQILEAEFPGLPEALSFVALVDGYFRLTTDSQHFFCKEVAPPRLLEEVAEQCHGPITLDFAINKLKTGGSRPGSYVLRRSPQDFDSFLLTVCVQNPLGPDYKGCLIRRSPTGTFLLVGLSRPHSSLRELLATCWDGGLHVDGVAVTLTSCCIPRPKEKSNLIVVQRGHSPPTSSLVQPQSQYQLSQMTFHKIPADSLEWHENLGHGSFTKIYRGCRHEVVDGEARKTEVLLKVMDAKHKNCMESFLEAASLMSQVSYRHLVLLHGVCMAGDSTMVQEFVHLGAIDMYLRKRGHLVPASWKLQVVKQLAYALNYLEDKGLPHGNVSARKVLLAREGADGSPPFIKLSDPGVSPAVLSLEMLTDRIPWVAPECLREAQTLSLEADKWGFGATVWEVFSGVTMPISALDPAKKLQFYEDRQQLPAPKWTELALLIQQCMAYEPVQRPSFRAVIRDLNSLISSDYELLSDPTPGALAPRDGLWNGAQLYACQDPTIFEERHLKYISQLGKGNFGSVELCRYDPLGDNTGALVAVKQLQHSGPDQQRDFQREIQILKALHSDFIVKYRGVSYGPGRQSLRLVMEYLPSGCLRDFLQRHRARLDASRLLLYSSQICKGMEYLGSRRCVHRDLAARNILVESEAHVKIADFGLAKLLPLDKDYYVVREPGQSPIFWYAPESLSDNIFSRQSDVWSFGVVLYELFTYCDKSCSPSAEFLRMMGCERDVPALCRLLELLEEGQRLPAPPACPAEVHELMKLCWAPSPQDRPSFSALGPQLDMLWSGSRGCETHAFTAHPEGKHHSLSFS

Tyk2 = Tyk2 (Homo sapiens (Human), UniProt P29597); assay: Enzyme assay (Assay Example^a 1), Tyk2; conditions: ATP 100 μM
Chain of Tyk2 (P29597 whole entry): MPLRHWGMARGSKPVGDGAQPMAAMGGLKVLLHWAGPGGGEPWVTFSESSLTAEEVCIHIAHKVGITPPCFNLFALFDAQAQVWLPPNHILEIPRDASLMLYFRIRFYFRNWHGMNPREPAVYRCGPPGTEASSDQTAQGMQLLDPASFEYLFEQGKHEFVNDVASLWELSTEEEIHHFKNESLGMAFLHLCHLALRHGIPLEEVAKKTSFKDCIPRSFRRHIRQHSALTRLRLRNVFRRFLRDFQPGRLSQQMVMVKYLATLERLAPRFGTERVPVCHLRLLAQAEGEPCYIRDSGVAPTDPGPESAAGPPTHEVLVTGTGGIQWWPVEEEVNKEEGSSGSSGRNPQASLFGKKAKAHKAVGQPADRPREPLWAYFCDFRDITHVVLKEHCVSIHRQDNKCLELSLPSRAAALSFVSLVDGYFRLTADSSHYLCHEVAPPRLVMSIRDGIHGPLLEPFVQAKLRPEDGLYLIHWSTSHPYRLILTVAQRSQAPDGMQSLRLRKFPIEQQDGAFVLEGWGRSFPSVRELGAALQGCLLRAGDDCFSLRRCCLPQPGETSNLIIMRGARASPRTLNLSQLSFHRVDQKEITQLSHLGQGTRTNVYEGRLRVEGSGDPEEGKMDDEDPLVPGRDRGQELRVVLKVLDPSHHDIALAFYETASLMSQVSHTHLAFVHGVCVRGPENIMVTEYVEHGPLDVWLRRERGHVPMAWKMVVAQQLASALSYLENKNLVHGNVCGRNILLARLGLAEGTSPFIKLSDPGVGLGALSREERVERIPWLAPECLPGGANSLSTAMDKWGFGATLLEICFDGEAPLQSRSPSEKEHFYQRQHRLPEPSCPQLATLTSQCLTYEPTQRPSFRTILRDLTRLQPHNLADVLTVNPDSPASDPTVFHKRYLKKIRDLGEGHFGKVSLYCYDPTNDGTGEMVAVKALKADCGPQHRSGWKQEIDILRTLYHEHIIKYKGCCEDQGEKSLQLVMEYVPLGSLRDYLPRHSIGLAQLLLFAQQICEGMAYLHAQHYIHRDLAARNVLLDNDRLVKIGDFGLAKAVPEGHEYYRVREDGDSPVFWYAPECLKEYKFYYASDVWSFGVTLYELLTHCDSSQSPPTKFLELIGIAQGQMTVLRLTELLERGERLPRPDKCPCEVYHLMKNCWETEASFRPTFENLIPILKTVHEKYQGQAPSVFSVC

SMILES | IC50 (JAK1) [µM] | IC50 (JAK2; ATP 100 μM) [µM] | IC50 (JAK3; ATP 100 μM) [µM] | IC50 (Tyk2) [µM] | IC50 (JAK3) [µM] | IC50 (JAK1; Table^a 154) [µM] | IC50 (JAK2; ATP 100 μM, Table^a 154) [µM] | IC50 (JAK3; ATP 100 μM, Table^a 154) [µM] | IC50 (Tyk2; Table^a 154) [µM] | IC50 (JAK2) [µM]
FC(F)(F)C(F)(F)CN[C@H]1CC[C@H](c2nnn3cnc4[nH]ccc4c23)CC1 [383b, trans-N-(2,2,3,3,3-pentafluoropropyl)-4-(7H-pyrrolo[3,2-e][1,2,3]triazolo[1,5-c]pyrimidin-1-yl)cyclohexanamine] | 0.0015 | 0.013 | 0.5 | 0.17 | – | – | – | – | – | –
O=C(CN[C@H]1CC[C@@H](c2nnn3cnc4[nH]ccc4c23)CC1)NCC(F)(F)F [384a, 2-{[cis-4-(7H-pyrrolo[3,2-e][1,2,3]triazolo[1,5-c]pyrimidin-1-yl)cyclohexyl]amino}-N-(2,2,2-trifluoroethyl)acetamide] | 0.087 | 0.56 | > 1 | > 1 | – | – | – | – | – | –
O=C(CN[C@H]1CC[C@H](c2nnn3cnc4[nH]ccc4c23)CC1)NCC(F)(F)F [384b, 2-{[trans-4-(7H-pyrrolo[3,2-e][1,2,3]triazolo[1,5-c]pyrimidin-1-yl)cyclohexyl]amino}-N-(2,2,2-trifluoroethyl)acetamide] | 0.022 | 0.08 | > 1 | > 1 | – | – | – | – | – | –
OC(CN[C@H]1CC[C@H](c2nnn3cnc4[nH]ccc4c23)CC1)(c1cccnc1)C(F)(F)F (stereo partly drawn) [385b, 3-{[trans-4-(7H-pyrrolo[3,2-e][1,2,3]triazolo[1,5-c]pyrimidin-1-yl)cyclohexyl]amino}-1,1,1-trifluoro-2-(pyridin-3-yl)propan-2-ol] | 0.0019 | 0.031 | 0.18 | 0.21 | – | – | – | – | – | –
CSc1ccc(C(O)(CN[C@H]2CC[C@H](c3nnn4cnc5[nH]ccc5c34)CC2)C(F)(F)F)cc1 (stereo partly drawn) [386b, 3-{[trans-4-(7H-pyrrolo[3,2-e][1,2,3]triazolo[1,5-c]pyrimidin-1-yl)cyclohexyl]amino}-1,1,1-trifluoro-2-[4-(methylthio)phenyl]propan-2-ol] | 0.0017 | 0.027 | 0.28 | 0.39 | – | – | – | – | – | –
COc1ccc(C(O)(CN[C@H]2CC[C@H](c3nnn4cnc5[nH]ccc5c34)CC2)C(F)(F)F)cn1 (stereo partly drawn) [387b, 3-{[trans-4-(7H-pyrrolo[3,2-e][1,2,3]triazolo[1,5-c]pyrimidin-1-yl)cyclohexyl]amino}-1,1,1-trifluoro-2-(6-methoxypyridin-3-yl)propan-2-ol] | 0.0019 | 0.032 | 0.12 | 0.18 | – | – | – | – | – | –
COc1ccc(C(O)(CN[C@H]2CC[C@H](c3nnn4cnc5[nH]ccc5c34)CC2)C(F)(F)F)cc1 (stereo partly drawn) [388b, 3-{[trans-4-(7H-pyrrolo[3,2-e][1,2,3]triazolo[1,5-c]pyrimidin-1-yl)cyclohexyl]amino}-1,1,1-trifluoro-2-(4-methoxyphenyl)propan-2-ol] | 0.0012 | 0.025 | 0.26 | 0.21 | – | – | – | – | – | –
COc1ccc(C(O)(CN[C@H]2CC[C@H](c3nnn4cnc5[nH]ccc5c34)CC2)C(F)(F)F)cc1OC (stereo partly drawn) [390b, 3-{[trans-4-(7H-pyrrolo[3,2-e][1,2,3]triazolo[1,5-c]pyrimidin-1-yl)cyclohexyl]amino}-2-(3,4-dimethoxyphenyl)-1,1,1-trifluoropropan-2-ol] | 0.0024 | 0.089 | 0.52 | 0.36 | – | – | – | – | – | –
N#Cc1ccc(CCN[C@H]2CC[C@H](c3nnn4cnc5[nH]ccc5c34)CC2)cc1 [391b, 4-(2-{[trans-4-(7H-pyrrolo[3,2-e][1,2,3]triazolo[1,5-c]pyrimidin-1-yl)cyclohexyl]amino}ethyl)benzonitrile] | 0.018 | 0.39 | > 1 | 0.58 | – | – | – | – | – | –
c1cc2c(ncn3nnc([C@H]4CC[C@H](NC5CC5)CC4)c23)[nH]1 [392b, trans-N-cyclopropyl-4-(7H-pyrrolo[3,2-e][1,2,3]triazolo[1,5-c]pyrimidin-1-yl)cyclohexanamine] | 0.014 | 0.08 | 0.61 | 0.33 | – | – | – | – | – | –
N#CCN[C@H]1CC[C@H](c2nnn3cnc4[nH]ccc4c23)CC1 [393b, 2-{[trans-4-(7H-pyrrolo[3,2-e][1,2,3]triazolo[1,5-c]pyrimidin-1-yl)cyclohexyl]amino}acetonitrile] | 0.0062 | 0.03 | 0.79 | 0.38 | – | – | – | – | – | –
N#CCCN[C@H]1CC[C@H](c2nnn3cnc4[nH]ccc4c23)CC1 [394b, 3-{[trans-4-(7H-pyrrolo[3,2-e][1,2,3]triazolo[1,5-c]pyrimidin-1-yl)cyclohexyl]amino}propanenitrile] | 0.015 | 0.09 | > 1 | > 1 | – | – | – | – | – | –
FC(F)(F)CN[C@H]1CC[C@H](c2nnn3cnc4[nH]ccc4c23)CC1 [395b, trans-4-(7H-pyrrolo[3,2-e][1,2,3]triazolo[1,5-c]pyrimidin-1-yl)-N-(2,2,2-trifluoroethyl)cyclohexanamine] | 0.0022 | 0.01 | 0.61 | 0.15 | – | – | – | – | – | –
c1cc2c(ncn3nnc([C@H]4CC[C@H](NCC5CC5)CC4)c23)[nH]1 [396b, trans-N-(cyclopropylmethyl)-4-(7H-pyrrolo[3,2-e][1,2,3]triazolo[1,5-c]pyrimidin-1-yl)cyclohexanamine] | 0.022 | 0.19 | > 1 | 0.71 | – | – | – | – | – | –
CN(C)[C@H]1CC[C@H](c2nnn3cnc4[nH]ccc4c23)CC1 [397b, trans-N,N-dimethyl-4-(7H-pyrrolo[3,2-e][1,2,3]triazolo[1,5-c]pyrimidin-1-yl)cyclohexanamine] | 0.023 | 0.21 | > 1 | 0.8 | – | – | – | – | – | –
CN[C@H]1CC[C@H](c2nnn3cnc4[nH]ccc4c23)CC1 [398b, trans-N-methyl-4-(7H-pyrrolo[3,2-e][1,2,3]triazolo[1,5-c]pyrimidin-1-yl)cyclohexanamine] | 0.029 | 0.11 | > 1 | 0.75 | – | – | – | – | – | –

SMILES | IC50 (JAK1) [µM] | IC50 (JAK2; ATP 100 μM) [µM] | IC50 (JAK3; ATP 100 μM) [µM] | IC50 (Tyk2) [µM] | IC50 (JAK3) [µM] | IC50 (JAK1; Table^a 154) [µM] | IC50 (JAK2; ATP 100 μM, Table^a 154) [µM] | IC50 (JAK3; ATP 100 μM, Table^a 154) [µM] | IC50 (Tyk2; Table^a 154) [µM] | IC50 (JAK2) [µM]
N#CC[C@H]1CC[C@@H](c2nnn3cnc4[nH]ccc4c23)CC1 [435a, 2-[cis-4-(7H-Pyrrolo[3,2-e][1,2,3]triazolo[1,5-c]pyrimidin-1-yl)cyclohexyl]acetonitrile] | 0.0054 | 0.021 | 0.72 | 0.17 | – | – | – | – | – | –
N#CC[C@H]1CC[C@H](c2nnn3cnc4[nH]ccc4c23)CC1 [435b, 2-[trans-4-(7H-Pyrrolo[3,2-e][1,2,3]triazolo[1,5-c]pyrimidin-1-yl)cyclohexyl]acetonitrile] | 0.00011 | 0.0025 | 0.032 | 0.0029 | – | – | – | – | – | –
CC(C#N)[C@H]1CC[C@@H](c2nnn3cnc4[nH]ccc4c23)CC1 (stereo partly drawn) [439a, 2-[cis-4-(7H-Pyrrolo[3,2-e][1,2,3]triazolo[1,5-c]pyrimidin-1-yl)cyclohexyl]propanenitrile] | 0.13 | 0.34 | > 1 | > 1 | – | – | – | – | – | –
CC(C#N)[C@H]1CC[C@H](c2nnn3cnc4[nH]ccc4c23)CC1 (stereo partly drawn) [439b, 2-[trans-4-(7H-Pyrrolo[3,2-e][1,2,3]triazolo[1,5-c]pyrimidin-1-yl)cyclohexyl]propanenitrile] | 0.0031 | 0.0067 | 0.33 | 0.025 | – | – | – | – | – | –
O=C(C[C@H]1CC[C@@H](c2nnn3cnc4[nH]ccc4c23)CC1)NCC(F)(F)F [442a, 2-[cis-4-(7H-Pyrrolo[3,2-e][1,2,3]triazolo[1,5-c]pyrimidin-1-yl)cyclohexyl]-N-2,2,2-trifluoroethylacetamide] | 0.027 | 0.061 | 0.52 | 0.79 | – | – | – | – | – | –
O=C(C[C@H]1CC[C@H](c2nnn3cnc4[nH]ccc4c23)CC1)NCC(F)(F)F [442b, 2-[trans-4-(7H-Pyrrolo[3,2-e][1,2,3]triazolo[1,5-c]pyrimidin-1-yl)cyclohexyl]-N-2,2,2-trifluoroethylacetamide] | 0.0032 | 0.014 | 0.1 | 0.88 | – | – | – | – | – | –
N#CCNC(=O)C[C@H]1CC[C@@H](c2nnn3cnc4[nH]ccc4c23)CC1 [443a, 2-[cis-4-(7H-Pyrrolo[3,2-e][1,2,3]triazolo[1,5-c]pyrimidin-1-yl)cyclohexyl]-N-(cyanomethyl)acetamide] | 0.026 | 0.06 | 0.73 | 0.54 | – | – | – | – | – | –
N#CCNC(=O)C[C@H]1CC[C@H](c2nnn3cnc4[nH]ccc4c23)CC1 [443b, 2-[trans-4-(7H-Pyrrolo[3,2-e][1,2,3]triazolo[1,5-c]pyrimidin-1-yl)cyclohexyl]-N-(cyanomethyl)acetamide] | 0.01 | 0.03 | 0.34 | > 1 | – | – | – | – | – | –
Cc1ccccc1-c1nnn2cnc3[nH]ccc3c12 [compound 5] | 0.02 | 0.13 | 0.26 | 0.13 | – | – | – | – | – | –
c1cc2c(ncn3nnc(C4CCCCC4)c23)[nH]1 [compound 6] | 0.0038 | 0.012 | 0.15 | 0.046 | – | – | – | – | – | –
CC1CCCCC1c1nnn2cnc3[nH]ccc3c12 (centres unmarked) [compound 7] | 0.0042 | 0.012 | – | 0.056 | 0.055 | – | – | – | – | –
S=c1[nH]c(C2CCCCC2)c2c3cc[nH]c3ncn12 [compound 8] | 0.02 | 0.03 | 0.43 | 0.036 | – | – | – | – | – | –
O=c1[nH]c(C2CCCCC2)c2c3cc[nH]c3ncn12 [compound 9] | 0.03 | 0.046 | – | 0.078 | 0.43 | – | – | – | – | –
FC(F)(F)c1ccc(CCN2CCC(c3nnn4cnc5[nH]ccc5c34)CC2)cc1 [compound 42] | – | – | – | – | – | 0.082 | 0.41 | > 1 | > 1 | –
c1csc(CN2CCC(c3nnn4cnc5[nH]ccc5c34)CC2)n1 [compound 48] | – | – | – | – | – | 0.022 | 0.054 | 0.44 | 0.46 | –
O=C(N[C@H]1CC[C@H](c2nnn3cnc4[nH]ccc4c23)CC1)OCc1ccccc1 [compound 60] | – | – | – | – | – | 0.0051 | – | > 1 | 4.2 | 0.032
